Results on four compounds are retold here after publication PMC7531286 (Phytomedicine, 2020).

In series [1] the target is SARS-CoV-2 spike protein (S1 subunit, His tag) (Severe acute respiratory syndrome coronavirus 2, UniProt P0DTC2). Nature of the series: biochemical. The series is classed as binding.
For series [2], the target named is MERS-CoV spike protein (S1 subunit, His tag) (Middle East respiratory syndrome-related coronavirus, UniProt K9N5Q8). Nature of the series: biochemical. The series is classed as binding.
Series [3] deals with SARS-CoV spike protein (S1 subunit, His tag) (Severe acute respiratory syndrome coronavirus, UniProt P59594). Nature of the series: biochemical. The series is classed as binding.
The target in series [4] is SARS-CoV-2 S-RBD/ACE2 interaction (Severe acute respiratory syndrome coronavirus 2, UniProt P0DTC2). The series is classed as cell-based.
In series [5] the test system is mouse aorta smooth muscle cells (MASMCs). The experiment in a line: MTT cell toxicity assay, MASMCs. As to conditions: at high concentrations (100 μM). (In general: Tetrazolium assays rely on reduction of a dye to a coloured formazan, in cell work by metabolically active cells.)

MERS-CoV spike protein (S1 subunit, His tag), sequence (K9N5Q8 18-751 limits assumed): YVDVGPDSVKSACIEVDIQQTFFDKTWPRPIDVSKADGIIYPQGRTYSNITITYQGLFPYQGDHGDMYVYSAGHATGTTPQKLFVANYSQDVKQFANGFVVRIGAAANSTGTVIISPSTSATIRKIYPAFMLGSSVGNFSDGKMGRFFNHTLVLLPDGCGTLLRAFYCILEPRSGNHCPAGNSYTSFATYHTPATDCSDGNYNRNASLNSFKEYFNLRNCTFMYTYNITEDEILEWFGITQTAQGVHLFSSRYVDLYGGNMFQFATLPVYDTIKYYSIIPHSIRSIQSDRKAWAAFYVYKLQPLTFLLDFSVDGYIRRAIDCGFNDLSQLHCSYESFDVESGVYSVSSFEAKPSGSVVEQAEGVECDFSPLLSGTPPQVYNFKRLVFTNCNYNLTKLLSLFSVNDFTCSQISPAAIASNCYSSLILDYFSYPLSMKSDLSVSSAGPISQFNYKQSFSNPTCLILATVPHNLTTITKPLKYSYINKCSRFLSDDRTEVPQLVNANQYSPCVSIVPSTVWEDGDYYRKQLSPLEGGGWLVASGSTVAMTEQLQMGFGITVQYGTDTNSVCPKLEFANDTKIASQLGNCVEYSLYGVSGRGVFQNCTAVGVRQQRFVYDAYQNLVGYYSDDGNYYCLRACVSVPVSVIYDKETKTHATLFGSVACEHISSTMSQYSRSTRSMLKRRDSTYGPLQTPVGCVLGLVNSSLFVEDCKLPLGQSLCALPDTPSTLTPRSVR

For `CC(C)=CCC[C@](C)(O[C@@H]1O[C@H](CO[C@@H]2O[C@H](CO)[C@@H](O)[C@H](O)[C@H]2O)[C@@H](O)[C@H](O)[C@H]1O)[C@H]1CC[C@]2(C)[C@@H]1[C@H](O)C[C@@H]1[C@@]3(C)CC[C@H](O[C@@H]4O[C@H](CO)[C@@H](O)[C@H](O)[C@H]4O[C@@H]4O[C@H](CO)[C@@H](O)[C@H](O)[C@H]4O)C(C)(C)[C@@H]3CC[C@]12C` [ZZY-9, Ginsenoside Rb1], the Kd (commonly the concentration at which binding is half-saturated) in series [1] stood at 470 nM; in series [2], 3450 nM; in series [3] it was 29700 nM.
As for `CC(C)=CCC[C@](C)(O[C@@H]1O[C@H](CO[C@@H]2OC[C@@H](O)[C@H](O)[C@H]2O)[C@@H](O)[C@H](O)[C@H]1O)[C@H]1CC[C@]2(C)[C@@H]1[C@H](O)C[C@@H]1[C@@]3(C)CC[C@H](O[C@@H]4O[C@H](CO)[C@@H](O)[C@H](O)[C@H]4O[C@@H]4O[C@H](CO)[C@@H](O)[C@H](O)[C@H]4O)C(C)(C)[C@@H]3CC[C@]12C` [ZZY-13, Ginsenoside Rb3], the Kd is 1000 nM in series [1], 250 nM in series [2] and 2000 nM in series [3]. Besides, the “Disruption of the SARS-CoV-2 S-RBD/ACE2 interaction in cells” value in series [4] is on record as “could disrupt”. In series [5], the “Cell toxicity to MASMCs” value is “no cell toxicity”.
As to `CC1(C)[C@@H](O[C@H]2O[C@H](C(=O)O)[C@@H](O)[C@H](O)[C@H]2O[C@@H]2O[C@H](C(=O)O)[C@@H](O)[C@H](O)[C@H]2O)CC[C@]2(C)[C@H]3C(=O)C=C4[C@@H]5C[C@@](C)(C(=O)O)CC[C@]5(C)CC[C@@]4(C)[C@]3(C)CC[C@@H]12` [ZZY-44, Glycyrrhizic acid], the Kd worked out at 470 nM in series [2] and 66800 nM in series [3]. In series [4], the “Disruption of the SARS-CoV-2 S-RBD/ACE2 interaction in cells” value is given as “could disrupt”. Besides, in series [5], the “Cell toxicity to MASMCs” value is “no cell toxicity”.
On to `COc1ccc2cc3[n+](cc2c1OC)CCc1cc2c(cc1-3)OCO2` [ZZY-54, Berberine Chloride], for which the figures for the dissociation constant Kd in series [1], in series [2] and in series [3] were 1240 nM, 7390 nM and 23900 nM, respectively.
